According to the NIST ThermoML archive (doi:10.1021/acs.jced.8b00692):
Numbers after ± are expanded uncertainties.

Experiment: xn = mol fraction of the nth substance listed
Details: 102 kPa, Liquid; for viscosity: Concentric cylinders viscometry; for speed of sound: Frequency=3 MHz, Single path-length method; for mass density: Vibrating tube method

CCCCCCCC1CCCCC1 [heptylcyclohexane] + CCCCCCCCCCCCCCCC
Details | mass density [kg/m3] | speed of sound [m/s] | viscosity [mPa·s]
293.15 K, x1 = 0.1997 | 779.33 ± 0.81 | 1358.9 ± 0.7 | 3.34 ± 0.02
293.15 K, x1 = 0.4002 | 785.92 ± 0.81 | 1362 ± 0.7 | 3.2 ± 0.02
293.15 K, x1 = 0.5001 | 789.55 ± 0.81 | 1363.4 ± 0.7 | 3.13 ± 0.02
293.15 K, x1 = 0.6006 | 793.34 ± 0.81 | 1365.3 ± 0.7 | 3.05 ± 0.02
293.15 K, x1 = 0.7998 | 801.63 ± 0.81 | 1368.8 ± 1.1 | 2.92 ± 0.02
293.15 K, x1 = 1 | 810.99 ± 0.81 | 1374.4 ± 0.8 | 2.8 ± 0.02
303.15 K, x1 = 0.1997 | 772.4 ± 0.81 | 1321.7 ± 0.7 | 2.66 ± 0.02
303.15 K, x1 = 0.4002 | 778.99 ± 0.81 | 1324.4 ± 0.7 | 2.56 ± 0.02
303.15 K, x1 = 0.5001 | 782.6 ± 0.81 | 1326.1 ± 0.7 | 2.51 ± 0.02
303.15 K, x1 = 0.6006 | 786.39 ± 0.81 | 1327.5 ± 0.7 | 2.45 ± 0.02
303.15 K, x1 = 0.7998 | 794.64 ± 0.81 | 1331.3 ± 1.1 | 2.35 ± 0.02
303.15 K, x1 = 1 | 803.96 ± 0.81 | 1336.1 ± 0.8 | 2.26 ± 0.02
313.15 K, x1 = 0.1997 | 765.47 ± 0.81 | 1285.1 ± 0.7 | 2.17 ± 0.02
313.15 K, x1 = 0.4002 | 772.06 ± 0.81 | 1287.5 ± 0.7 | 2.08 ± 0.02
313.15 K, x1 = 0.5001 | 775.66 ± 0.81 | 1289.4 ± 0.7 | 2.05 ± 0.02
313.15 K, x1 = 0.6006 | 779.44 ± 0.81 | 1290.6 ± 0.7 | 2.01 ± 0.02
313.15 K, x1 = 0.7998 | 787.98 ± 0.81 | 1294.3 ± 1.1 | 1.93 ± 0.02
313.15 K, x1 = 1 | 796.93 ± 0.81 | 1298.7 ± 0.8 | 1.86 ± 0.02
323.15 K, x1 = 0.1997 | 758.54 ± 0.81 | 1249.3 ± 0.7 | 1.8 ± 0.01
323.15 K, x1 = 0.4002 | 765.13 ± 0.81 | 1251.5 ± 0.7 | 1.73 ± 0.01
323.15 K, x1 = 0.5001 | 768.71 ± 0.81 | 1253.4 ± 0.7 | 1.71 ± 0.01
323.15 K, x1 = 0.6006 | 772.48 ± 0.81 | 1254.5 ± 0.7 | 1.67 ± 0.01
323.15 K, x1 = 0.7998 | 780.65 ± 0.81 | 1258.1 ± 1.1 | 1.61 ± 0.01
323.15 K, x1 = 1 | 789.89 ± 0.81 | 1262.1 ± 0.8 | 1.56 ± 0.01
333.15 K, x1 = 0.1997 | 751.62 ± 0.81 | 1214.4 ± 0.7 | 1.52 ± 0.01
333.15 K, x1 = 0.4002 | 758.19 ± 0.81 | 1216.7 ± 0.7 | 1.46 ± 0.01
333.15 K, x1 = 0.5001 | 761.75 ± 0.81 | 1218.2 ± 0.7 | 1.45 ± 0.01
333.15 K, x1 = 0.6006 | 765.51 ± 0.81 | 1219.4 ± 0.7 | 1.42 ± 0.01
333.15 K, x1 = 0.7998 | 773.64 ± 0.81 | 1222.8 ± 1.1 | 1.37 ± 0.01
333.15 K, x1 = 1 | 782.83 ± 0.81 | 1226.5 ± 0.8 | 1.33 ± 0.01
343.15 K, x1 = 0.1997 | 744.7 ± 0.8 | – | 1.31 ± 0.01
343.15 K, x1 = 0.4002 | 751.3 ± 0.8 | – | 1.25 ± 0.01
343.15 K, x1 = 0.5001 | 754.8 ± 0.8 | – | 1.25 ± 0.01
343.15 K, x1 = 0.6006 | 758.6 ± 0.8 | – | 1.22 ± 0.01
343.15 K, x1 = 0.7998 | 766.7 ± 0.8 | – | 1.18 ± 0.01
343.15 K, x1 = 1 | 775.8 ± 0.8 | – | 1.15 ± 0.01
353.15 K, x1 = 0.1997 | 737.7 ± 0.8 | – | 1.12 ± 0.01
353.15 K, x1 = 0.4002 | 744.3 ± 0.8 | – | 1.09 ± 0.01
353.15 K, x1 = 0.5001 | 747.8 ± 0.8 | – | 1.07 ± 0.01
353.15 K, x1 = 0.6006 | 751.6 ± 0.8 | – | 1.06 ± 0.01
353.15 K, x1 = 0.7998 | 759.6 ± 0.8 | – | 1.03 ± 0.01
353.15 K, x1 = 1 | 768.7 ± 0.8 | – | 0.993 ± 0.012
363.15 K, x1 = 0.1997 | 730.8 ± 0.8 | – | 1 ± 0.01
363.15 K, x1 = 0.4002 | 737.8 ± 0.8 | – | 0.954 ± 0.012
363.15 K, x1 = 0.5001 | 740.7 ± 0.8 | – | 0.962 ± 0.012
363.15 K, x1 = 0.6006 | 744.5 ± 0.8 | – | 0.932 ± 0.012
363.15 K, x1 = 0.7998 | 752.6 ± 0.8 | – | 0.903 ± 0.012
363.15 K, x1 = 1 | 761.6 ± 0.8 | – | 0.892 ± 0.012
373.15 K, x1 = 0.1997 | 723.7 ± 0.8 | – | 0.866 ± 0.012
373.15 K, x1 = 0.4002 | 730.3 ± 0.8 | – | 0.845 ± 0.012
373.15 K, x1 = 0.5001 | 733.7 ± 0.8 | – | 0.834 ± 0.012
373.15 K, x1 = 0.6006 | 737.5 ± 0.8 | – | 0.827 ± 0.012
373.15 K, x1 = 0.7998 | 745.4 ± 0.8 | – | 0.803 ± 0.012
373.15 K, x1 = 1 | 754.4 ± 0.8 | – | 0.776 ± 0.012
